Assays:
HGF-1 cells = assay: MTT cytotoxicity assay on HGF-1 cells (Example 2); assay type: cell-based, human
Protocol: The mammalian cell line HGF-1 (ATCC® CRL-2014™) was commercially obtained by ATCC and cultured at 37° C. and 5% CO2 in Dulbecco's Modified Eagle's Medium (Thermo Fisher Scientific, France) supplemented with 10% (v/v) bovine calf serum (Dutscher, France) and 1% (v/v) penicillin-streptomycin (Thermo Fisher Scientific, France).
The cytotoxicity of the antimicrobial agents was examined by MTT [3(4,5-dimethylthiazol-2-yl)-2,5 diphenyl tetrazolium bromide] assays (Scientific Life—France) against HGF-1 cells. Cells were incubated for 24 h in a 96-wells plate before being treated with various concentrations of Ca(OH)2 alone or supplemented with the peptide. As a control, cells were plated in each 96-wells without being treated. After 24 h, 48 h and 72 h incubation, cells were carefully washed with PBS and treated with MTT at a final concentration of 0.25 mg/mL. HGF-1 cells were then incubated for 2 h at 37° C. before being lysed with isopropanol/HCL (48:2, v/v). Cell viability was assessed by reading the OD540 nm with a Multiskan EX microplate spectrophotometer (Thermo Fisher Scientific, France). The OD540 nm of each well was then compared to the […] of the control. For each set of experiments, standard deviations were determined.

Enterococcus faecalis = assay type: cell-based; conditions: saturated solution of Ca(OH)2 (1.7 mg/mL, pH 9)
Protocol: (§1) Enterococcus faecalis (CCM 2541) was obtained from the Czechoslovac Collection of Microorganisms (Czech Republic) Bacteria were cultured in Anaerobe Basal Broth (Oxoid, France) at 37° C. in anaerobic conditions. Candida albicans (ATCC© 10231™) was cultured in Sabouraud medium (BD, France) supplemented with tetracycline (10 μg/mL) and cefotaxime (10 μg/mL).
(§2) An overnight culture of each pathogen was diluted (OD600 nm=0.001) and incubated at 37° C. in 96-plates in the presence of different concentrations of antimicrobial agents. When testing Ca(OH)2, the pH of the solution was measured with by pH meter. (CyberScan pH 510©, Eutech, France). After 24 h incubation, the OD620 nm was evaluated with a spectrophotometer (Multikan EX, ThermoScientific, France). Each assay was done at least in triplicate. For each set of assay, the standard deviation was determined.

Prevotella intermedia = assay: Broth dilution assay (Example 2); assay type: cell-based; conditions: Ca(OH)2 0.85 mg/mL alone, or combined with ½ MIC of D-CTL
Protocol: as §1, §2

Fusobacterium nucleatum = assay: Broth dilution assay (Example 2); assay type: cell-based
Protocol: as §1, §2

Candida albicans = assay: Broth dilution assay (Example 2); assay type: cell-based; conditions: Ca(OH)2 0.85 mg/mL alone, or combined with ½ MIC of D-CTL
Protocol: as §1, §2

Parvimonas micra = assay: Broth dilution assay (Example 2); assay type: cell-based; conditions: Ca(OH)2 0.85 mg/mL alone, or combined with ½ MIC of D-CTL
[1] = literature (Schmidtchen et al., 2002); cited from earlier work

Row | Compound | toxicity on HGF-1 (HGF-1 cells; Ca(OH)2 0.425 g/L, after three days incubation) | toxicity on HGF-1 (HGF-1 cells; Ca(OH)2 0.85 g/L, after three days incubation) | toxicity on HGF-1 (HGF-1 cells; saturated solution of Ca(OH)2 (1.7 mg/mL), after 24 h) | toxicity on HGF-1 (HGF-1 cells; saturated solution of Ca(OH)2 (1.7 mg/mL), after 72 h incubation) | toxicity on HGF-1 (HGF-1 cells; saturated solution of Ca(OH)2 (1.7 mg/mL), second of three values, time not clearly printed) | inhibition rate of E. faecalis growth (Enterococcus faecalis) | inhibition of P. intermedia growth (Prevotella intermedia) | inhibition of F. nucleatum growth (Fusobacterium nucleatum; Ca(OH)2 0.85 mg/mL alone, or combined with ½ MIC of D-CTL) | inhibition of the growth of F. nucleatum (Fusobacterium nucleatum; saturated solution of Ca(OH)2 (1.7 mg/mL, pH 9)) | inhibition of C. albicans growth (Candida albicans) | inhibition of P. micra growth (Parvimonas micra) | degradation by the virulence factors of E. faecalis [1]
1 | [Ca+2].[OH-].[OH-] [Ca(OH)2] | below 4% (±7%) | below 4% (±7%) | 20% (±7%) | 50% (±6%) | 14% (±11%) | 58% (±5%) | 77%±6% | 30%±10% | 100% (±1%) | 87%±2% | 15%±6% | 
2 | LL-37 |  |  |  |  |  |  |  |  |  |  |  | completely degraded
